Consider nine compounds from ChEMBL document CHEMBL4480364, “Discovery of monoamine oxidase inhibitors by medicinal chemistry approaches” (Medchemcomm, 2019).

The species entered for data set [1] is Homo sapiens. The experiment in a line: Selectivity index, ratio of IC50 for human MAOA to IC50 for human MAOB.
Data set [2] addresses T1, Amine oxidase [flavin-containing] A (Homo sapiens, UniProt P21397).
T1 sequence (P21397 whole entry): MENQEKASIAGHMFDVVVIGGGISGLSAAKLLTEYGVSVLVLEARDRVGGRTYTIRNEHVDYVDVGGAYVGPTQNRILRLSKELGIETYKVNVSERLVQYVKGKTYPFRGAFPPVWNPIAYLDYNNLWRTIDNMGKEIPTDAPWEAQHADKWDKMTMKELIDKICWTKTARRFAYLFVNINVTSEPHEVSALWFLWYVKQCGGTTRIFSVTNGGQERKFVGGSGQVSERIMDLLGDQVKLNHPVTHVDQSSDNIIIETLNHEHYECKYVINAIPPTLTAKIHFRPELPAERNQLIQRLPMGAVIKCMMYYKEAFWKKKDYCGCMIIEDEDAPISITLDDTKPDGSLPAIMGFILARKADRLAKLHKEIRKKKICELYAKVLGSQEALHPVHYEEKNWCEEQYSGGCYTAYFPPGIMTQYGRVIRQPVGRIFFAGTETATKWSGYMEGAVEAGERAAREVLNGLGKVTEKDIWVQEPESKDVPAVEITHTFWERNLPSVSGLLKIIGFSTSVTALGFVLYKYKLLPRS
Description: Inhibition of human MAOA.

The target in data set [3] is T2, Amine oxidase [flavin-containing] B (Homo sapiens, UniProt P27338).
T2 sequence (P27338 whole entry): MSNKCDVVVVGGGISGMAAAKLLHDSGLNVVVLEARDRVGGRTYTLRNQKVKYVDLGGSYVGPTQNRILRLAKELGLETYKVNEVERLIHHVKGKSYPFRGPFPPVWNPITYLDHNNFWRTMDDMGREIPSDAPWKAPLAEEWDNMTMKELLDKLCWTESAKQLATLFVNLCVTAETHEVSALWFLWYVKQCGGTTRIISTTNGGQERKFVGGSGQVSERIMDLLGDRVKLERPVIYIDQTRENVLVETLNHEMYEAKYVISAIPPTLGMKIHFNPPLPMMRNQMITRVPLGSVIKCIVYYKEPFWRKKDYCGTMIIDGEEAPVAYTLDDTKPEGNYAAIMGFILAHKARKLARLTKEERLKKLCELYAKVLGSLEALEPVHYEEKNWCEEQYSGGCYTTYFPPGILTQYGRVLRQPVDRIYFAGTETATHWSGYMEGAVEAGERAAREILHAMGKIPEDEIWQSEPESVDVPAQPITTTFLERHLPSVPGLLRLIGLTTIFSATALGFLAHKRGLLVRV
Description: Inhibition of human MAOB.

Data set [4] has as its target T1, Amine oxidase [flavin-containing] A. The experiment in a line: Inhibition of recombinant human MAOA using p-tyramine as substrate after 15 mins by Amplex Red dye-based fluorometric method.
For data set [5], the species on record is Homo sapiens. Description: Selectivity index, ratio of Ki for recombinant human MAOA to Ki for recombinant human MAOB.
The target of data set [6] is T3, MAO-B (amine oxidase [flavin-containing] B) (Homo sapiens, UniProt P27338).
T3 sequence (P27338 whole entry): T2 sequence (P27338 whole entry)
Description: Inhibition of human MAOB at 1 uM relative to control.

The target in data set [7] is T4, MAO-A (amine oxidase [flavin-containing] A) (Homo sapiens, UniProt P21397).
T4 sequence (P21397 whole entry): T1 sequence (P21397 whole entry)
Description: Inhibition of human MAOA at 1 uM relative to control.

For data set [8], the target named is T2, Amine oxidase [flavin-containing] B. Description: Inhibition of recombinant human MAOB using p-tyramine as substrate after 15 mins by Amplex Red dye-based fluorometric method.
The target of data set [9] is T1, Amine oxidase [flavin-containing] A. The experiment in a line: Inhibition of recombinant human MAOA using kynuramine as substrate after 30 mins by fluorescence assay.
For data set [10], the species on record is Homo sapiens. The experiment in a line: Selectivity index, ratio of IC50 for inhibition of human MAOA to IC50 for IC50 for inhibition of human MAOB.

A word on the IC50: it is the concentration that inhibits the measured activity by half. Take `O=C(SCCc1ccco1)c1cc2ccccc2oc1=O`: the Ratio IC50 in the data set listed under Homo sapiens [1] amounted to 189. Also, the results for the 50% inhibitory concentration (IC50) in [2] and in data set [3] were 39.7 µM and 0.2 µM, respectively.

In general, Ki refers to the equilibrium dissociation constant of an inhibitor or competing ligand from its target. Consider `CCc1ccc(/C=C/C(=O)c2ccc(Cl)s2)cc1`, for which the inhibition constant Ki in data set [4] is 5.22 µM. Moreover, the Ratio Ki in the data set listed under Homo sapiens [5] worked out at 16.8.

As a reminder, the inhibition is the relative decrease from the control value, in per cent. Regarding `Cn1c(=O)c2[nH]c(-c3cccc(NC(=O)/C=C/c4cccc(F)c4)c3)nc2n(C)c1=O`, the inhibition at 1 µM in data set [6] was determined as 30.9%; in [7] it was 0%. In [3], this compound returned a Ki of 3.42 µM.

With `O=C(/C=C/c1ccc([N+](=O)[O-])cc1)c1ccc(Cl)s1`, the Ki in data set [8] amounted to 2.55 µM; in data set [4], 0.49 µM. For the same compound, in the data set listed under Homo sapiens [5], the Ratio Ki amounted to 0.19.

`Cn1c(=O)c2c(nc(-c3cccc(Cl)c3)n2C)n(C)c1=O` registered a Ki in data set [3] of 36 µM.

For `Cc1ncc(/C=C/c2ccc(CN3CCOCC3)c(O)c2)c(CO)c1O`, the IC50 in data set [9] is 16 µM.

In the case of `COc1cc(C2=NN(C(=O)Oc3ccccc3)C(c3ccc(O)c(OC)c3)C2)ccc1O` (configuration not stated), in the data set listed under Homo sapiens [10], the Ratio IC50 stood at 9e-07. Also, in data set [2], the Ki is 0.14 µM.

For `CCn1c(=O)c2c(nc(/C=C/c3ccc(OC)c(OC)c3)n2C)n(CC)c1=O` [ISTRADEFYLLINE], the inhibition constant Ki in [3] was determined as 0.027 µM.

As to `O=C1c2ccccc2C(=O)c2c(O)c(O)cc(O)c21` [PURPURIN], the IC50 in [3] was > 40 µM.
